# From patent publication US20030166703A1, “Method of treatment” (priority 2000, published 2003)
# System: male Lister Hooded rats
# Assay: Rat Conditioned Emotional Response (CER) Model of Anxiety
# Type: in vivo
# Conditions: 10.0 mg/kg po, 40 min pre-test, hydrochloride; for Suppression Ratio (± SEM): SR 0 = complete suppression, 0.5 = absence of fear; for Rate of responding per minute ±SEM “Dur” period / Rate of responding per minute ±SEM “Pre” period: collapsed across two test trials
# Source text: Sixty male Lister Hooded rats with a mean free-feeding weight of 472 g were used. Rats were housed in cages of four and were fed a restricted diet designed to maintain rats at 85% of their free-feeding body weight. A 12:12 light/dark cycle was in effect in the colony room and the rats were trained and tested during the light part of the cycle.
# These chambers were housed in outer sound and light attenuating shells equipped with a ventilation fan which also helped to mask external noise. A single operant lever was positioned on the left side of the front panel of the operant chamber, approximately 2 cm above the grid floor. Coulbourn animal test cage grid floor shockers (E13-14) were used to deliver shock (0.4 mA, 0.5 s) to the grid floors (model E-10-10SF). […] A houselight (4.0 mA, 28V) was positioned on the front wall of the chamber, above the food magazine, approximately 1.0 cm below the ceiling.
# Once the rats had been placed on a restricted feeding regime, magazine training began. On each of the first four days of training each rat received a 30 minute session of magazine training during which pellets were delivered on a variable interval (VI) 30 s schedule. […] These sessions lasted until either 30 minutes expired or 30 food pellets were delivered. […] On the VI 90 s schedule pellets could be earned by pressing the lever, on average, once every 90 s. The houselight was off throughout all of the training sessions.
# CER training sessions were approximately 60 minutes long and usually conducted on 5 days per week. During these sessions, food pellets continued to be available on an VI 90 s schedule as before. However, the rats were now presented with two two-minute long periods of houselight illumination. The first light presentation occurred approximately 20 minutes after the start of the session (range 15-25 minutes) and the second light presentation occurred approximately 20 minutes after the first light presentation (range 15-25 minutes). Light presentations were occasionally followed by a 0.5 second 0.4 mA footshock. In a given session, footshock could follow neither, one, or both of the light presentations. On average rats would receive one shock presentation per session. The rate of lever-pressing during each of the light presentations (the ‘during’ or ‘dur’ period) and the rate of lever-pressing in the two minute interval preceding each light presentation (the ‘pre’ period) was recorded.
# Once a reliable SR was observed, occasional test sessions occurred. Test sessions were identical to training session except that footshock was never delivered following the first light presentation. Tests occurred no more frequently than once per week and a baseline training session was always carried out before each test session.
# The data were analysed with a mixed within-subject (trials) and between-subjects (drug treatment) analysis of variance (ANOVA). The ANOVA was conducted separately on the pre and during light response rates and on the suppression ratios. Significant interactions were followed by one-way analysis of variance on the data collected for each trial. Significant group effects were analysed using post-hoc Dunnett t-tests.
compound,measurement,setting,value
"CNC1=Nc2ccc(Cl)cc2C(c2ccccc2)=[N+]([O-])C1.Cl [Chlordiazepoxide, chlordiazepoxide hydrochloride]",Suppression Ratio (± SEM),,0.37 ± 0.05
same,Suppression Ratio (± SEM),listed as CDP,significant increase in SR
same,Rate of responding per minute ±SEM “Dur” period,,13.7 ± 3.1 per minute
same,Rate of responding per minute ±SEM “Pre” period,,21.8 ± 2.9 per minute
same,Rate of responding per minute ±SEM “Dur” period,listed as CDP,significant increase in dur responding
same,Rate of responding per minute ±SEM “Pre” period,listed as chlordiazepoxide,significant increase in pre responding
